Patent publication US11339130B1 (Blade Therapeutics, Inc., priority 2016, dated 2022)
Where two headings read alike, the source gives them in different places.

Assays:
Type in all cases: biochemical
[1] = molecular target: T1, Human Calpain 1/NS1 (Homo sapiens, UniProt P07384); assay: Calpain inhibition continuous fluorescence (FRET) assay, Human Calpain 1/NS1; details: read-out: Human Calpain 1/NS1 IC50
T1 sequence (P07384 1-714): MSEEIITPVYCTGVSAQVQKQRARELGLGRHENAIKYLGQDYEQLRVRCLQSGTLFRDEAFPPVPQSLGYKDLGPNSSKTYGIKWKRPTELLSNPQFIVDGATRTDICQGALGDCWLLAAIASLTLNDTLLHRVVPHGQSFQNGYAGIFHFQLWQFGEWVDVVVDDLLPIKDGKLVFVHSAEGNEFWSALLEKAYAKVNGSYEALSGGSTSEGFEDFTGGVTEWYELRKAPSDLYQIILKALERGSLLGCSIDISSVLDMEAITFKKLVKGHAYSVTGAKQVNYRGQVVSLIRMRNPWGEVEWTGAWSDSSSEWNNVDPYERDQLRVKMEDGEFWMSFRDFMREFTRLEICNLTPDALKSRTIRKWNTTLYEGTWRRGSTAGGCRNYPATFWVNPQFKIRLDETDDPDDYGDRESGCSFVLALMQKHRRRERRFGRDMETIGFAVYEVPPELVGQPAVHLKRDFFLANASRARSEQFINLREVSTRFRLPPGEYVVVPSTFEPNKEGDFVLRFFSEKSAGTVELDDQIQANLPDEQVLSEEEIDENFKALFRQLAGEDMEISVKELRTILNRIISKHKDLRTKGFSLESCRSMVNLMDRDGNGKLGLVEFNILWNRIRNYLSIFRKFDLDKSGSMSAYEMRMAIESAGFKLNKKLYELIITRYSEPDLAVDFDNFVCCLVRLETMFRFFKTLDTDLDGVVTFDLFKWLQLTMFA
T1 sequence (P04632 1-268 partner): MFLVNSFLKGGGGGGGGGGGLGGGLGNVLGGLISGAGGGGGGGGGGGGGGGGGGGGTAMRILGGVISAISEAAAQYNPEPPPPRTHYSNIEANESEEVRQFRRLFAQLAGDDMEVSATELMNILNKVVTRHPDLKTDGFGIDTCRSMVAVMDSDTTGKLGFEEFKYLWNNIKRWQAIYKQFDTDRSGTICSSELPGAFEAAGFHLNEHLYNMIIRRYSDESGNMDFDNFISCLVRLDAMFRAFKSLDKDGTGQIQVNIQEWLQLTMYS
Protocol: (§1) Calpain 1, 2, and 9 activity and inhibition thereof was assessed by means of a continuous fluorescence assay. The SensoLyte 520 Calpain substrate (Anaspec Inc) was optimized for detecting calpain activity. This substrate contains an internally quenched 5-FAM/QXL™ 520 FRET pair. Calpains 1, 2, and 9 cleave the FRET substrate into two separate fragments resulting in an increase of 5-FAM fluorescence that is proportional to calpain activity
(§2) Assays were typically setup in black 384-well plates using automated liquid handling as follows. Calpain assay base buffer typically contains 50 mM Tris, pH 7.5, 100 mM NaCl and 1 mM DTT. Inhibitors were serially diluted in DMSO and used to setup 2× mixtures with calpains in the aforementioned buffer. After incubation at ambient temperature (25C), the reaction was initiated by adding a 2× mix of the fluorescent peptide substrate and CaCl2) (required for in-situ calpain activation) in the same buffer. Reaction progress curve data were typically collected for 10 min using excitation/emission wavelengths of 490 nm/520 nm on SpectraMax i3× or the FLIPR-Tetra plate readers (Molecular Devices Inc). Reaction rates were calculated from progress curve slopes typically over 1-5 min. Dose response curves (rate vs. log inhibitor concentration) were typically fit to a 4-parameter logistic function to extract IC50 values.

[2] = molecular target: T2, Human Calpain 9/NS1 (Homo sapiens, UniProt O14815); assay: Calpain inhibition continuous fluorescence (FRET) assay, Human Calpain 9/NS1; details: read-out: Human Calpain 9/NS1 IC50
T2 sequence (O14815 1-690): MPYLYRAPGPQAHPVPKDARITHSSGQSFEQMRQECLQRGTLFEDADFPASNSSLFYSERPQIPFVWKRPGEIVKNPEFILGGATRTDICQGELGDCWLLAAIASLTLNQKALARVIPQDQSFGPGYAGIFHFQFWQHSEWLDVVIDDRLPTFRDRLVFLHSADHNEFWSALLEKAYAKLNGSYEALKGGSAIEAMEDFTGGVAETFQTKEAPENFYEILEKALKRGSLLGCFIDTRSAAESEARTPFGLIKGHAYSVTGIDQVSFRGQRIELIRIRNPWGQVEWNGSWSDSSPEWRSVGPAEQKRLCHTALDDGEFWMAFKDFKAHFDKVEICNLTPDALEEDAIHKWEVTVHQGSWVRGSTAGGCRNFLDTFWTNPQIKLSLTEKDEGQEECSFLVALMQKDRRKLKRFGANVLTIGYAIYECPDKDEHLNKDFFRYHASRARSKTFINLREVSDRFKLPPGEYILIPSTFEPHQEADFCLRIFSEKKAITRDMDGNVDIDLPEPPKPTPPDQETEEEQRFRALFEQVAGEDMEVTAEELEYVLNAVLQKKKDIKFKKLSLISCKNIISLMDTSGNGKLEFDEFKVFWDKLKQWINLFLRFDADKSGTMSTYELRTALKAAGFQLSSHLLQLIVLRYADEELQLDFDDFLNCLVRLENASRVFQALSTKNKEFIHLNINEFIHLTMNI
T2 sequence (P04632 1-268 partner): T1 sequence (P04632 1-268 partner)
Protocol: as §1, §2

[3] = molecular target: T3, Human Calpain 2/NS1 (Homo sapiens, UniProt P17655); assay: Calpain inhibition continuous fluorescence (FRET) assay, Human Calpain 2/NS1; details: read-out: Human Calpain 2/NS1 IC50
T3 sequence (P17655 1-700): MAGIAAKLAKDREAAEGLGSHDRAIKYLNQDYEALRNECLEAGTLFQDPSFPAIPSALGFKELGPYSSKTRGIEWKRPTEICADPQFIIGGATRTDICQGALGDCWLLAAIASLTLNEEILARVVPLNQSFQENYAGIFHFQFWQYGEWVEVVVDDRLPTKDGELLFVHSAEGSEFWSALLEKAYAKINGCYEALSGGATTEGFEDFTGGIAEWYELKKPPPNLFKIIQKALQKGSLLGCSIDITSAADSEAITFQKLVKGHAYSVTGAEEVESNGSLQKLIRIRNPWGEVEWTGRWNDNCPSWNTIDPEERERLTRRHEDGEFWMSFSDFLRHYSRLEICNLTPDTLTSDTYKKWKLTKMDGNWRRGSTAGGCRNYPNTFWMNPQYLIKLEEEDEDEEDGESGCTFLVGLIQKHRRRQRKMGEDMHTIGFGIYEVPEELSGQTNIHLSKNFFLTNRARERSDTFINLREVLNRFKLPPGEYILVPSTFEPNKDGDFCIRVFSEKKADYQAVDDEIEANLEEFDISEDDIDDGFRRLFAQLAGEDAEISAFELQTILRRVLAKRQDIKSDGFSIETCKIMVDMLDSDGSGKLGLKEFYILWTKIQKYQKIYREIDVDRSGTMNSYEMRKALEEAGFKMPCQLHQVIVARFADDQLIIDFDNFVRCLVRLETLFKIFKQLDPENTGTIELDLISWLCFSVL
T3 sequence (P04632 1-268 partner): T1 sequence (P04632 1-268 partner)
Protocol: as §1, §2

## Cc1noc(-c2ccccc2)c1C(=O)N[C@@H](Cc1ccccc1)C(=O)C(=O)NCc1cccnc1 [Compound 224, (S)—N-(3,4-dioxo-1-phenyl-4-((pyridin-3-ylmethyl)amino)butan-2-yl)-3-methyl-5-phenylisoxazole-4-carboxamide]
[1]; Column A
  IC50: < 3 µM
[2]; Column C
  IC50: 3 to 10 µM
[3]; Column B
  IC50: 3 to 10 µM

## NC(=O)C(=O)[C@H](Cc1ccccc1)NC(=O)c1nn[nH]c1-c1ccccc1 [Compound 262, (S)—N-(4-amino-3,4-dioxo-1-phenylbutan-2-yl)-5-phenyl-1H-1,2,3-triazole-4-carboxamide]
[1]; Column A
  IC50: 3 to 10 µM
[2]; Column C
  IC50: < 3 µM
[3]; Column B
  IC50: 3 to 10 µM

## NC(=O)C(=O)C(Cc1ccccc1)NC(=O)c1c(C(F)(F)F)cnn1-c1ncccn1 (stereo not drawn) [Compound 410, N-(4-amino-3,4-dioxo-1-phenylbutan-2-yl)-1-(pyrimidin-2-yl)-4-(trifluoromethyl)-1H-pyrazole-5-carboxamide]
[1]
  IC50: 3 to 10 µM
[2]
  IC50: 3 to 10 µM
[3]
  IC50: 3 to 10 µM

## COc1ccc2nc(-n3nc(C)cc3C(=O)N[C@@H](Cc3ccccc3)C(=O)C(N)=O)sc2c1 [Compound 297, (S)—N-(4-amino-3,4-dioxo-1-phenylbutan-2-yl)-1-(6-methoxybenzo[d]thiazol-2-yl)-3-methyl-1H-pyrazole-5-carboxamide]
[1]; Column A
  IC50: > 10 µM
[2]; Column C
  IC50: < 3 µM
[3]; Column B
  IC50: 3 to 10 µM

## Cc1cc(C(=O)NC(Cc2ccccc2)C(=O)C(N)=O)n(-c2ccncn2)n1 (stereo not drawn) [Compound 409, N-(4-amino-3,4-dioxo-1-phenylbutan-2-yl)-3-methyl-1-(pyrimidin-4-yl)-1H-pyrazole-5-carboxamide]
[1]
  IC50: < 3 µM
[2]
  IC50: < 3 µM
[3]
  IC50: < 3 µM

## Cc1cc(C(=O)N[C@@H](Cc2ccccc2)C(=O)C(N)=O)n(-c2nccs2)n1 [Compound 215, (S)—N-(4-amino-3,4-dioxo-1-phenylbutan-2-yl)-3-methyl-1-(thiazol-2-yl)-1H-pyrazole-5-carboxamide]
[1]; Column A
  IC50: < 3 µM
[2]; Column C
  IC50: < 3 µM
[3]; Column B
  IC50: < 3 µM

## O=C(NC1CC1)C(=O)[C@H](Cc1ccccc1)NC(=O)c1sc(C2CC2)nc1-c1ccccc1 [Compound 135, (S)-2-cyclopropyl-N-(4-(cyclopropylamino)-3,4-dioxo-1-phenylbutan-2-yl)-4-phenylthiazole-5-carboxamide]
[1]; Column A
  IC50: < 3 µM
[2]; Column C
  IC50: > 10 µM
[3]; Column B
  IC50: < 3 µM

## Cn1cc(-c2nn(C)cc2C(=O)NC(Cc2ccccc2)C(=O)C(N)=O)cn1 (stereo not drawn) [Compound 626, N-(4-amino-3,4-dioxo-1-phenylbutan-2-yl)-1,1′-dimethyl-1H,1′H-[3,4′-bipyrazole]-4-carboxamide]
[1]
  IC50: < 3 µM
[2]
  IC50: < 3 µM
[3]
  IC50: < 3 µM

## O=C[C@H](Cc1ccccc1)NC(=O)c1cncn1-c1cc(-c2ncco2)ccn1 [Compound 110, (S)-1-(4-(oxazol-2-yl)pyridin-2-yl)-N-(1-oxo-3-phenylpropan-2-yl)-1H-imidazole-5-carboxamide]
[1]; Column A
  IC50: < 3 µM
[2]; Column C
  IC50: 3 to 10 µM
[3]; Column B
  IC50: < 3 µM

## NC(=O)C(=O)C(Cc1ccccc1)NC(=O)c1cnoc1Cc1ccccc1 (stereo not drawn) [Compound 491, N-(4-amino-3,4-dioxo-1-phenylbutan-2-yl)-5-benzylisoxazole-4-carboxamide]
[1]
  IC50: < 3 µM
[2]
  IC50: 3 to 10 µM
[3]
  IC50: < 3 µM

## Cc1nc(-c2cccc3c2OC(F)(F)O3)c(C(=O)NC(Cc2ccccc2)C(=O)C(N)=O)o1 (stereo not drawn) [Compound 618, N-(4-amino-3,4-dioxo-1-phenylbutan-2-yl)-4-(2,2-difluorobenzo[d][1,3]dioxol-4-yl)-2-methyloxazole-5-carboxamide]
[1]
  IC50: < 3 µM
[2]
  IC50: < 3 µM
[3]
  IC50: < 3 µM

## Cc1cc(C(=O)N[C@@H](Cc2ccccc2)C(=O)C(=O)NCc2ccc(Cl)c(Cl)c2)n(-c2ccccc2)n1 [Compound 149, (S)—N-(4-((3,4-dichlorobenzyl)amino)-3,4-dioxo-1-phenylbutan-2-yl)-3-methyl-1-phenyl-1H-pyrazole-5-carboxamide]
[1]; Column A
  IC50: > 10 µM
[2]; Column C
  IC50: > 10 µM
[3]; Column B
  IC50: > 10 µM

## (S)—N-(4-amino-3,4-dioxo-1-phenylbutan-2-yl)-4-chloro-1-ethyl-3-methyl-1H-pyrazole-5-carboxamide [Compound 312]
[1]
  IC50: < 3 µM
[2]
  IC50: 3 to 10 µM
[3]
  IC50: < 3 µM

## Cn1cc(C(=O)NC(Cc2ccccc2)C(=O)C(N)=O)c(C2CC2)n1 (stereo not drawn) [Compound 616, N-(4-amino-3,4-dioxo-1-phenylbutan-2-yl)-3-cyclopropyl-1-methyl-1H-pyrazole-4-carboxamide]
[1]
  IC50: 3 to 10 µM
[2]
  IC50: 3 to 10 µM
[3]
  IC50: < 3 µM

## Cc1cn(-c2ccccc2)c(C(=O)N[C@@H](Cc2ccccc2)C(=O)C(N)=O)n1 [Compound 319, (S)—N-(4-amino-3,4-dioxo-1-phenylbutan-2-yl)-4-methyl-1-phenyl-1H-imidazole-2-carboxamide]
[1]
  IC50: < 3 µM
[2]
  IC50: < 3 µM
[3]
  IC50: < 3 µM

## NC(=O)C(=O)[C@H](Cc1ccccc1)NC(=O)c1scnc1-n1cc(-c2ccccc2)cn1 [Compound 39, (S)—N-(4-amino-3,4-dioxo-1-phenylbutan-2-yl)-4-(4-phenyl-1H-pyrazol-1-yl)thiazole-5-carboxamide]
[1]; Column A
  IC50: < 3 µM
[2]; Column C
  IC50: < 3 µM
[3]; Column B
  IC50: < 3 µM

## O=C(NC1CC1)C(=O)[C@H](Cc1ccccc1)NC(=O)c1cncn1-c1ccccn1 [Compound 41, (S)—N-(4-(cyclopropylamino)-3,4-dioxo-1-phenylbutan-2-yl)-1-(pyridin-2-yl)-1H-imidazole-5-carboxamide]
[1]; Column A
  IC50: 3 to 10 µM
[2]; Column C
  IC50: 3 to 10 µM
[3]; Column B
  IC50: < 3 µM
